Here are results for 37 compounds from patent US12084434B2 (Scorpion Therapeutics, Inc., priority 2021, dated 2024).

The IC50 is the concentration at which inhibition is half-maximal.

For one assay, the system named is T47D pAKT (S473), PI3Kα H1047R mutation present. As to the kind of experiment: HTRF pAKT-T47D.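 Note: assay medium was RPMI with 10% FBS and 0.2 units/ml bovine insulin, without phenol red.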 Particulars: Homo sapiens, T47D, 1 h, read-out: T47D pAKT IC50 (nM), T47D.1 cells, pAKT (S473) HTRF, 1 hour. On the technique in general: In TR-FRET formats the signal depends on donor and acceptor labels being close together.
In the case of `Cc1c([C@@H](NC(=O)Nc2ncc(N)cn2)C(C)(C)C)oc2ccc(F)cc12` [Compound 86, (S)-1-(5-aminopyrimidin-2-yl)-3-(1-(5-fluoro-3-methylbenzofuran-2-yl)-2,2-dimethylpropyl)urea], the IC50 is below 1000 nM.
The same measure, in the same setting: under `Cc1c([C@@H](NC(=O)Nc2cnc(N3CC[C@H](O)C3)nc2)C(F)(F)F)oc2c(F)cc(F)cc12` [Compound 209] stands below 1000 nM.
Still for that read-out and setting: under `Cc1c([C@@H](NC(=O)Nc2cccc(-c3nnnn3C)c2)C(C)C)oc2ccc(F)cc12` [Compound 125, (S)-1-(1-(5-fluoro-3-methylbenzofuran-2-yl)-2-methylpropyl)-3-(3-(1-methyl-1H-tetrazol-5-yl)phenyl)urea] stands 1000 to 5000 nM; under `Cc1c([C@@H](NC(=O)Nc2cnc(N3CC4(CCCO4)C3)nc2)C(C)C)oc2ccc(F)cc12` [Compound 165, 3-[(1S)-1-(5-fluoro-3-methyl-1-benzofuran-2-yl)-2-methylpropyl]-1-(2-{5-oxa-2-azaspiro[3.4]octan-2-yl}pyrimidin-5-yl)urea], below 1000 nM; under `Cc1c([C@@H](NC(=O)Nc2cnc(N3C[C@@H](O)[C@@H]3C)nc2)C(F)(F)F)oc2ccc(F)cc12` [Compound 170], below 1000 nM.
Still for that read-out and setting: under `Cc1c([C@@H](NC(=O)Nc2cnc(N3CC(S(C)(=O)=O)C3)nc2)C(C)C)oc2ccc(F)cc12` [Compound 128, (S)-1-(1-(5-fluoro-3-methylbenzofuran-2-yl)-2-methylpropyl)-3-(2-(3-(methylsulfonyl)azetidin-1-yl)pyrimidin-5-yl)urea] stands 1000 to 5000 nM; under `Cc1c([C@@H](NC(=O)Nc2cnc(NC3COC3)nc2)C(C)C)oc2ccc(F)cc12` [Compound 136], below 1000 nM; under `Cc1c([C@H](NC(=O)Nc2cnc(N3CC[C@H](O)C3)nc2)C(F)(F)F)oc2c(F)cc(F)cc12` [Compound 210], above 5000 nM.
For the compound `Cc1c([C@@H](NC(=O)Nc2cnc(N3C[C@H](O)[C@H]3C)nc2)C(C)C)oc2ccc(F)cc12` (relative stereo) [Compound 149, 3-[(1S)-1-(5-fluoro-3-methyl-1-benzofuran-2-yl)-2-methylpropyl]-1-{2-[(2R*,3R**)-3-hydroxy-2-methylazetidin-1-yl]pyrimidin-5-yl}urea], the concentration for half-maximal inhibition (IC50) is below 1000 nM.
`Cc1c([C@@H](NC(=O)Nc2cnc(N)nc2)C2(C)CC2)oc2ccc(F)cc12` [Compound 84, (S)-1-(2-aminopyrimidin-5-yl)-3-((5-fluoro-3-methylbenzofuran-2-yl)(1-methylcyclopropyl)methyl)urea]: the IC50 was below 1000 nM.
The same measure, in the same setting: for `Cc1c([C@@H](NC(=O)Nc2ccc3c(c2)C(=O)OC3)C(C)C)oc2ccc(F)cc12` [Compound 102, 3-[(1S)-1-(5-fluoro-3-methyl-1-benzofuran-2-yl)-2-methylpropyl]-1-(3-oxo-1H-2-benzofuran-5-yl)urea] the value was 1000 to 5000 nM; for `Cc1c([C@@H](NC(=O)Nc2cnc(N3CC4(COC4)C3)nc2)C(F)(F)F)oc2ccc(F)cc12` [Compound 168, (R)-1-(2-(2-oxa-6-azaspiro[3.3]heptan-6-yl)pyrimidin-5-yl)-3-(2,2,2-trifluoro-1-(5-fluoro-3-methylbenzofuran-2-yl)ethyl)urea], below 1000 nM.
On the same count and under the same terms, for `Cc1c([C@@H](NC(=O)Nc2cnc(N3CCOCC3)nc2)C(C)C)oc2ccc(F)cc12` [Compound 107] the value was below 1000 nM.
Same read-out and setting: for `Cc1c(C(NC(=O)Nc2cnc(N3CC(S(C)(=O)=O)C3)nc2)C(F)(F)F)oc2c(F)cc(F)cc12` (racemic) [Compound 185, 1-(1-(5,7-difluoro-3-methylbenzofuran-2-yl)-2,2,2-trifluoroethyl)-3-(2-(3-(methylsulfonyl)azetidin-1-yl)pyrimidin-5-yl)urea] the value was 1000 to 5000 nM.
With `Cc1c([C@@H](NC(=O)Nc2cnc(NCCCO)nc2)C(C)C)oc2ccc(F)cc12` [Compound 137], the IC50 was below 1000 nM.
Same read-out and setting: for `Cc1c([C@@H](NC(=O)Nc2cccc(N3CCC3=O)c2)C(C)C)oc2ccc(F)cc12` [Compound 105] the value was 1000 to 5000 nM; for `Cc1c([C@@H](NC(=O)Nc2ccc(Cl)c(S(C)(=O)=O)c2)C(C)C)oc2ccc(F)cc12` [Compound 126, (S)-1-(4-chloro-3-(methylsulfonyl)phenyl)-3-(1-(5-fluoro-3-methylbenzofuran-2-yl)-2-methylpropyl)urea], 1000 to 5000 nM.
As for `Cc1c([C@@H](NC(=O)Nc2ccc3c(c2)C(=O)N(C)C3)C(C)C)oc2ccc(F)cc12` [Compound 103], the IC50 is 1000 to 5000 nM.
As to `Cc1c(C(NC(=O)Nc2ccc(N)cc2)C(F)(F)F)oc2c(F)cc(F)cc12` (single isomer, unassigned) [Compound 221, 1-(4-aminophenyl)-3-(1-(5,7-difluoro-3-methylbenzofuran-2-yl)-2,2,2-trifluoroethyl)urea], the IC50 was 1000 to 5000 nM.
Still for that read-out and setting: under `Cc1c(C(NC(=O)Nc2cnc(N)nc2)C(F)(F)F)oc2c(C#N)cc(F)cc12` (single isomer, unassigned) [Compound 219, 1-(2-aminopyrimidin-5-yl)-3-[1-(7-cyano-5-fluoro-3-methyl-1-benzofuran-2-yl)-2,2,2-trifluoroethyl]urea] stands 1000 to 5000 nM; under `CNC(=O)c1cc(NC(=O)N[C@H](c2oc3ccc(F)cc3c2C)C(C)C)ccc1OC` [Compound 104], below 1000 nM; under `Cc1c([C@@H](NC(=O)Nc2cnc(N3CC(C(C)(C)O)C3)nc2)C(F)(F)F)oc2c(F)cc(F)cc12` [Compound 205], below 1000 nM.
The same measure, in the same setting: under `CNC(=O)C1CN(c2ncc(NC(=O)N[C@H](c3oc4ccc(F)cc4c3C)C(C)C)cn2)C1` [Compound 163, 1-[5-({[(1S)-1-(5-fluoro-3-methyl-1-benzofuran-2-yl)-2-methylpropyl]carbamoyl}amino)pyrimidin-2-yl]-N-methylazetidine-3-carboxamide] stands below 1000 nM.
Consider `Cc1c([C@H](C)NC(=O)Nc2cnc(N)nc2)oc2ccc(F)cc12` [Compound 101, (S)-1-(2-aminopyrimidin-5-yl)-3-(1-(5-fluoro-3-methylbenzofuran-2-yl)ethyl)urea], for which the IC50 was in the range of 1000 to 5000 nM.

Staying with this assay, now noted: read-out: T47D pAKT IC50; T47D.1 cells, pAKT (S473) HTRF, 1 hour.
`Cc1c(C(NC(=O)Nc2cnc(N3CC4(COC4)C3)nc2)C(F)(F)F)oc2c(F)cc(F)cc12` (racemic) [Compound 172, 1-(2-(2-oxa-6-azaspiro[3.3]heptan-6-yl)pyrimidin-5-yl)-3-(1-(5,7-difluoro-3-methylbenzofuran-2-yl)-2,2,2-trifluoroethyl)urea]: the IC50 is below 1000 nM.
As to `Cc1c(C(NC(=O)Nc2cnc(N[C@@H](C)CO)nc2)C(F)(F)F)oc2c(F)cc(F)cc12` (single isomer, unassigned) [Compound 195], the IC50 was above 5000 nM.
Same read-out and setting: for `Cc1c(C(NC(=O)Nc2ccc(N)nc2)C(F)(F)F)oc2c(F)cc(F)cc12` (stereo not shown) [Compound 182] the value was below 1000 nM; for `Cc1c(C(NC(=O)Nc2cnc(N)nc2)C(F)(F)F)oc2c(Cl)cc(F)cc12` (racemic) [Compound 178, 1-(2-aminopyrimidin-5-yl)-3-[1-(7-chloro-5-fluoro-3-methyl-1-benzofuran-2-yl)-2,2,2-trifluoroethyl] urea], below 1000 nM; for `Cc1c(C(NC(=O)Nc2cnc(N)nc2)C(F)(F)F)oc2c(F)cc(Cl)cc12` (racemic) [Compound 155, 1-(2-aminopyrimidin-5-yl)-3-[1-(5-chloro-7-fluoro-3-methyl-1-benzofuran-2-yl)-2,2,2-trifluoroethyl]urea], above 5000 nM.
In the case of `Cc1c(C(NC(=O)Nc2cnc(N3C[C@@H](O)[C@@H]3C)nc2)C(F)(F)F)oc2c(F)cc(F)cc12` (stereo partly shown) [Compound 175], the IC50 was below 1000 nM.
On the same count and under the same terms, for `Cc1c(C(NC(=O)Nc2cnc(N3C[C@@H](O)[C@@H]3C)nc2)C(F)(F)F)oc2c(F)cc(F)cc12` (stereo partly shown) [Compound 176] the value was above 5000 nM.
Same read-out and setting: for `Cc1c(C(NC(=O)Nc2cnc(N3CC(O)C3)nc2)C(F)(F)F)oc2c(Cl)cc(F)cc12` (single isomer, unassigned) [Compound 199, 3-[1-(7-chloro-5-fluoro-3-methyl-1-benzofuran-2-yl)-2,2,2-trifluoroethyl]-1-[2-(3-hydroxyazetidin-1-yl)pyrimidin-5-yl] urea] the value was above 5000 nM; for `Cc1c(C(NC(=O)Nc2cnc(N3CC(O)C3)nc2)C(F)(F)F)oc2c(Cl)cc(F)cc12` (single isomer, unassigned) [Compound 200, 3-[1-(7-chloro-5-fluoro-3-methyl-1-benzofuran-2-yl)-2,2,2-trifluoroethyl]-1-[2-(3-hydroxyazetidin-1-yl)pyrimidin-5-yl] urea], below 1000 nM; for `Cc1c(C(NC(=O)Nc2cnc(N3CC(C)(O)C3)nc2)C(F)(F)F)oc2c(Cl)cc(F)cc12` (single isomer, unassigned) [Compound 202, 1-(1-(7-chloro-5-fluoro-3-methylbenzofuran-2-yl)-2,2,2-trifluoroethyl)-3-(2-(3-hydroxy-3-methylazetidin-1-yl)pyrimidin-5-yl)urea], below 1000 nM.
Still for that read-out and setting: under `Cc1c(C(NC(=O)Nc2cnc(N3CCC(O)CC3)nc2)C(F)(F)F)oc2c(F)cc(F)cc12` (single isomer, unassigned) [Compound 192] stands below 1000 nM; under `CCc1c(C(NC(=O)Nc2cnc(N)nc2)C(F)(F)F)oc2ccc(F)cc12` (racemic) [Compound 132, 1-(2-aminopyrimidin-5-yl)-3-[1-(3-ethyl-5-fluoro-1-benzofuran-2-yl)-2,2,2-trifluoroethyl]urea], below 1000 nM.
In the case of `Cc1c(C(NC(=O)Nc2cnc(N3CC(C)(O)C3)nc2)C(F)(F)F)oc2c(Cl)cc(F)cc12` (single isomer, unassigned) [Compound 201, 1-(1-(7-chloro-5-fluoro-3-methylbenzofuran-2-yl)-2,2,2-trifluoroethyl)-3-(2-(3-hydroxy-3-methylazetidin-1-yl)pyrimidin-5-yl)urea], the IC50 is above 5000 nM.
